Assay results reported in PubChem BioAssay AID540271 (Broad Institute, 2011).
Calls of active or inactive are those of the source. The rule behind the calls is not given here.

Test system: S. cerevisiae expressing PfHSP40, growth rescue, plate reader
Experiment: Yeast growth rescue from Plasmodium falciparum HSP40 toxicity, dose response confirmatory, plate reader (AID 540271);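 note: yeast growth read after three days of incubation at 30 °C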

SMILES	AC50
CC1CCN(c2nc(-c3ccncc3)nc3ccccc23)CC1	7.47 µM
Cc1ccc(-n2nnnc2SCC(=O)N2CCc3ccccc3C2)c(C)c1	5.8 µM
O=C(Nc1ccccc1N1CCOCC1)c1cc2c(s1)CCCCC2	6.04 µM
COc1cnc(-c2ccccn2)nc1Sc1ccc(C)cc1	5.97 µM
CC12CC3(C)CC(C)(C1)CC(NC(=O)N1CCCC1)(C2)C3	1.7 µM
Cc1cc(C)c(C(=O)CC(=O)c2cccnc2)c(C)c1	2.06 µM
COC(=O)c1ccc(N2C(=O)CC(N(C)CCc3ccc(OC)c(OC)c3)C2=O)cc1 (stereo not drawn)	5.2 µM
O=C(O)c1ccccc1NC(c1ccccc1)c1ccc2cccnc2c1O (stereo not drawn)	2.19 µM
Oc1c(CN2CCCC2)cc(COCc2ccccc2)c2cccnc12	5.55 µM
C[C@H](O)[C@H]1CC[C@H]2[C@@H]3CCC4=CC(=O)CC[C@]4(C)[C@H]3CC[C@]12C	6.85 µM
Cc1ccc(-n2nnnc2C(Cl)c2nnnn2-c2ccc(C)cc2)cc1	3.4 µM
Cc1cccc(C)c1N1C(=O)C2ON(c3ccccc3)C(c3ccncc3)C2C1=O (stereo not drawn)	6.34 µM
COc1ccc2c(c1)[C@H]1[C@H](CO2)[C@H](c2ccccc2)[C@]2(C)C(=O)Nc3ccc(Cl)cc3C(=O)N12	> 12 µM (inactive)
N#C/C(=C\c1cccc(Oc2ccccc2)c1)C(=O)N1CCOCC1	5.91 µM
CC(=O)Nc1ccc2c(c1)Cc1cc(N3C(=O)C=CC3=O)ccc1-2	0.526 µM
Cc1ccc(COc2ccc(Br)cc2/C=N/O)cc1	7.92 µM
Cc1ccc(CNC(=O)CSc2ccc(-c3ccccn3)nn2)cc1	4.21 µM
O/N=C(\c1ccc(Cl)cc1)c1cc2ccccc2o1	5.38 µM
Oc1ccc(Cl)cc1CNc1cccc2cccnc12	6.73 µM
CC/C(=N/NC(=O)c1ccccc1O)c1c(C)[nH]n(-c2ccccc2)c1=O	0.705 µM

SMILES	AC50
CCCC1CCC(c2ccc(/C(N)=N/O)cc2)CC1 (stereo not drawn)	> 12 µM (inactive)
O=C1c2cccc(Cl)c2C(=O)c2c1cccc2N1CCCC1	4.9 µM
Cc1ccc(Cl)cc1NC1=C/C(=N\S(=O)(=O)c2cccs2)c2ccccc2C1=O	6.42 µM
Cc1ccc(CCNc2ncnc(Cl)c2N)cc1	4.48 µM
COC(=O)/C=C\C(=O)Nc1cccc([N+](=O)[O-])c1	1.83 µM
COc1cc(C(=O)ON=C2C3CC4CC(C3)CC2C4)cc(OC)c1OC	5.01 µM
Clc1nc(-c2ccccn2)nc2scc(-c3ccccc3)c12	5.78 µM
O=C(CSc1ccc(-c2ccccn2)nn1)N1CCCc2ccccc21	3.52 µM
COc1cccc(/C=N/Nc2ncnc(Cl)c2N)c1O	4.52 µM
Cc1c(C(=O)O)cccc1-c1ccc(/C=N/Nc2ccc(Br)cc2)o1	6.31 µM
O=NN(CCc1ccncc1)c1ccc(OCc2ccccc2)cc1	5.81 µM
CCCOc1ccc(N2C(=O)CC(N3CCC(C(=O)OCC)CC3)C2=O)cc1 (stereo not drawn)	6.34 µM
O=C(O)c1ccc(N/N=C/C=C/c2ccccc2)cc1	3.72 µM
Cc1nc(SCc2ccc(OCCC(C)C)cc2)n[nH]1	3.08 µM
CC1CCCCC1NC(=O)/C(C#N)=C/c1ccccc1F (stereo not drawn)	5.7 µM
O=[N+]([O-])c1cc2oc3c(c2c(C=NCc2ccccc2)c1O)CCCC3	0.986 µM
O=C(N/N=C/c1ccc[nH]1)c1sc2ccccc2c1Cl	6.23 µM
CC1CCc2sc(-c3n[nH]c(=S)o3)cc2C1 (stereo not drawn)	5.69 µM
CCOC(=O)N1CCN(S(=O)(=O)c2ccc(C(=O)NNc3nc4ccc(Cl)cc4s3)cc2)CC1	5.51 µM
O=[N+]([O-])c1ccc2c(OCc3nnc(-c4ccccc4Br)o3)ncnc2c1	6.17 µM

SMILES	AC50
C=C(C)COc1ccc(-c2[nH]ncc2-c2ccc(Br)cc2)c(O)c1	4.66 µM
CCOC(=O)c1cc2c(=Cc3ccc(N(C)C)cc3)c3ccccc3n2[n+]1C	3.75 µM
O=c1c(-c2cccc3ccccc23)[n+]([O-])c2ccccc2n1O	10.4 µM
CCOc1ccc(-n2c(O)c(/C=N/NC(=O)C3COc4ccccc4O3)c3ccccc3c2=O)cc1 (stereo not drawn)	4.11 µM
C=CCN(CC=C)C(=S)NC(=O)c1ccc(OC)c(Br)c1	7.96 µM
NNC(=O)c1ccc2nc(-c3ccc(Br)cc3)cn2c1	6.47 µM
CC(C)N1CCN(c2ccc(OCC3COC(Cn4cncn4)(c4ccc(Cl)cc4Cl)O3)cc2)CC1 (stereo not drawn)	2.01 µM
CCCCNc1c(-c2cccc(Sc3ccc(OC)cc3)c2)nc2ccccn12	8.12 µM
C[C@@]12C(=O)Nc3ccc(F)cc3C(=O)N1[C@H]1c3ccccc3OC[C@@H]1[C@@H]2c1ccccc1	8.46 µM
O=[N+]([O-])c1ccc(S(=O)Cc2ccccc2)c([N+](=O)[O-])c1 (stereo not drawn)	1.75 µM
CCC(C)n1ncn(-c2ccc(N3CCN(c4ccc(OCC5COC(Cn6cncn6)(c6ccc(Cl)cc6Cl)O5)cc4)CC3)cc2)c1=O (stereo not drawn)	0.129 µM
COc1cccc(CNC(=O)CSc2ccc(-c3ccccn3)nn2)c1	5.07 µM
COc1cnc(-c2ccccn2)nc1Sc1ccccc1	6.99 µM
Cc1ccc(O)c(-c2cc(-c3ccccc3C)[nH]n2)c1	5.42 µM
Cc1[nH]n(-c2cccc3ccccc23)c(=O)c1/C=N/NC(=O)c1cccc([N+](=O)[O-])c1	1.48 µM
CCC(Oc1ccc(Br)cc1Cl)C(=O)Nc1nnc(C2CC2)s1 (stereo not drawn)	4.51 µM
O=c1c(/C=N/O)coc2ccc(Cl)cc12	> 12 µM (inactive)
CCOC(=O)C1=C(Cc2ccc(OC)cc2)C(=O)c2ccccc2C1=O	5.4 µM
